“Also recorded” adds a separate entry of the source.
Tests used:
[1] = Toxicity / maximum tolerated dosage in mice; assay type: in vivo; conditions: ip 104 mg/kg/inj, bid days 1,4,7; 11 CDF1 mice with Colon 26
[2] = tested on: L1210/ARA-C cells; assay: Cytosine Arabinoside resistant L1210 cells surviving treatment; assay type: in vivo, mouse
[3] = tested on: L1210/6MP, 6TG, 6TGR cells; assay: Life span of mice inoculated with L1210 resistant to 6MP, 6TG, 6TGR; assay type: in vivo, mouse; conditions: for ILS: L1210/6MP,6TG; for activity against drug resistant cells (words): mouse, in vivo
[4] = tested on: human mammary carcinoma MX-1; assay: Human mammary carcinoma MX-1 tumor weight in nu/nu mice; assay type: in vivo; conditions: qd days 1,3,5,7,9,11; for Tumor wt, staging day (mean ± 1SD): before treatment (day 17 post implant); for Tumor wt, evaluation day (mean ± 1SD): day 15 of treatment; for δT/δC: ≤20% moderate activity
Procedure: (§1) In this example Compound 19 was tested against reticulum cell sarcoma M5076. For this and certain other tests below, test results are shown as δT/δC. Utilizing this protocol the difference in tumor weight before treatment and after treatment of the treated animals compared to the control animals is determined.
In Example P Compound 19 was tested against human mammary carcinoma MX-1.

[5] = Toxicity / maximum tolerated dosage in mice; assay type: in vivo
Procedure: In Example N other compounds of the invention were tested against L1210 cells. […] Activity in Table 14-a is tabulated as both increases in life span and as cells surviving treatment and that in table 14-b as T/C.

[6] = tested on: L1210/MTX cells; assay: Methotrexate resistant L1210 cells surviving treatment; assay type: in vivo, mouse
Procedure: In Example I Compound 19 was tested against Methotrexate resistant L1210 cells.

[7] = tested on: L1210/6MP, 6TG, 6TGR cells; assay: L1210/6MP, 6TG, 6TGR cells surviving treatment; assay type: in vivo, mouse; conditions: for RCP (Residual Cell Population): L1210/6MP,6TG
Procedure: In Example G Compound 19 was tested against both L1210 cells and L1210 cells which were resistant to 6-Mercaptopurine, 6-Thioguanine and 6-Thioguanosine. […] As was noted above, drugs in the 6-Mercaptopurine family are presently among the drugs of choice for treatment of leukemia.

[8] = tested on: Colon 26 Adenocarcinoma; assay: Survival of CDF1 mice bearing Colon 26 Adenocarcinoma; assay type: in vivo, mouse; conditions: for T/C (%): ≥150% significant
Procedure: In Example Q Compound 19 was tested against Colon 26 Adenocarcinoma.

[9] = tested on: Human Colon Adenocarcinoma CX-1; assay: Human Colon Adenocarcinoma CX-1 tumor weight in nu/nu mice; assay type: in vivo; conditions: for Tumor wt, staging day (mean ± 1SD): before treatment (day 33 post implant); for δT/δC: ≤20% active
Procedure: as §1
Compound 19 was further tested against Human Colon Adenocarcinoma CX-1. Activity against this tumor system is indicated at a δT/δC value of less than 20.

[10] = tested on: Lewis lung carcinoma; assay: Activity against Lewis lung carcinoma; conditions: in vivo
[11] = tested on: reticulum cell sarcoma M5076; assay: Reticulum cell sarcoma M5076 tumor weight in C57B1/6 mice; assay type: in vivo, mouse; conditions: qd days 1,3,5,7,9,11; for Tumor wt, staging day (mean ± 1SD): before treatment (day 15 post inoculation); for Tumor wt, evaluation day (mean ± 1SD): day 12 of treatment
Procedure: as §1

[12] = Solubility (maximum solubility); assay type: physicochemical
[13] = tested on: B-16 melanoma; assay: Activity against B-16 melanoma; conditions: in vivo
[14] = ip 104 mg/kg/inj, qd days 1,4,7
[15] = ip 173 mg/kg/inj, qd days 1,4,7
[16] = ip 37 mg/kg/inj, bid days 1,3,5,7
[17] = ip 62 mg/kg/inj, bid days 1,4,7
[18] = ip 104 mg/kg/inj, qd days 1,3,5,7
[19] = ip 173 mg/kg/inj, qd days 1,3,5,7
[20] = day 12, ip 138.4 mg/kg/inj, qd days 1,3,5,7,9
[21] = day 12, ip 138.4 mg/kg/inj, qd days 1,4,7,10,13,16
[22] = day 12, ip 173.0 mg/kg/inj, qd days 1,3,5,7
[23] = day 15, ip 138.4 mg/kg/inj, qd days 1,3,5,7,9,11
[24] = day 15, ip 138.4 mg/kg/inj, qd days 1,4,7,10,13
[25] = day 16, ip 173.0 mg/kg/inj, qd days 1,3,5,7,9
[26] = day 16, ip 173.0 mg/kg/inj, qd days 1,4,7,10
[27] = day 17, ip 173.0 mg/kg/inj, qd days 1,4,7,10,13

SMILES: Nc1nc([S+](N)[O-])c2ncn([C@@H]3O[C@H](CO)[C@@H](O)[C@H]3O)c2n1 (mixture of isomers) [Compound 19, 2-amino-9-β-D-ribofuranosyl-9H-purine-6-sulfinamide]
- toxic deaths [1]: 6
- L1210/ARA-C cells surviving (% of day zero inoculum) [2, 14]: 1.7%
- L1210/ARA-C cells surviving (% of day zero inoculum) ([2]; ip 173 mg/kg/inj, qd day 1): 0.02%
- L1210/ARA-C cells surviving (% of day zero inoculum) [2, 15]: 0.6%
- efficacy against ARA-C resistant line vs parent ([2]; mouse, in vivo): greater efficacy against this resistant cell line than it did to the parent non-drug resistant L1210 cells
- Activity against I.P. L1210 cells resistant to 6MP, 6TG, 6TGR, T/C ([3]; 37 mg/kg, bid days 1,3,5,7): 165.6%
- Activity against I.P. L1210 cells resistant to 6MP, 6TG, 6TGR, T/C ([3]; 62 mg/kg, bid day 1): 133.3%
- Activity against I.P. L1210 cells resistant to 6MP, 6TG, 6TGR, T/C ([3]; 62 mg/kg, bid days 1,4,7): 175.0%
- Activity against I.P. L1210 cells resistant to 6MP, 6TG, 6TGR, T/C ([3]; 62 mg/kg, qd day 1): 127.3%
- Activity against I.P. L1210 cells resistant to 6MP, 6TG, 6TGR, T/C ([3]; 62 mg/kg, tid day 1): 133.3%
- Activity against I.P. L1210 cells resistant to 6MP, 6TG, 6TGR, T/C ([3]; 104 mg/kg, bid day 1): 150.0%
- Activity against I.P. L1210 cells resistant to 6MP, 6TG, 6TGR, T/C ([3]; 104 mg/kg, qd day 1): 122.2%
- Activity against I.P. L1210 cells resistant to 6MP, 6TG, 6TGR, T/C ([3]; 173 mg/kg, qd day 1): 144.5%
- ILS [3, 16]: 66%
- ILS [3, 17]: 75%
- ILS ([3]; oral 37 mg/kg/inj, bid days 1,3,5,7): 0%
- ILS ([3]; oral 62 mg/kg/inj, bid days 1,4,7): 0%
- activity against drug resistant cells (words) [3]: exhibited activity against the drug resistant cells; also recorded: active
- activity against drug resistant cells (words) ([3]; listed as 2-amino-9-β-D-ribofuranosyl-9H-purine-6-sulfinamide): demonstrated activity against cells which have become resistant to other chemotherapeutic agents
- Tumor wt, staging day (mean ± 1SD) ([4]; ip 110.8 mg/kg/inj group): 321 ± 132 mg
- Tumor wt, staging day (mean ± 1SD) ([4]; ip 138.4 mg/kg/inj group): 330 ± 118 mg
- Tumor wt, staging day (mean ± 1SD) ([4]; ip 173.0 mg/kg/inj group): 323 ± 127 mg
- Tumor wt, evaluation day (mean ± 1SD) ([4]; ip 110.8 mg/kg/inj): 943 ± 297 mg
- Tumor wt, evaluation day (mean ± 1SD) ([4]; ip 138.4 mg/kg/inj): 884 ± 415 mg
- Tumor wt, evaluation day (mean ± 1SD) ([4]; ip 173.0 mg/kg/inj): 489 ± 104 mg
- δT/δC ([4]; ip 110.8 mg/kg/inj): 66.1%
- δT/δC ([4]; ip 138.4 mg/kg/inj): 58.9%
- δT/δC ([4]; ip 173.0 mg/kg/inj): 17.6%
- mice which died from drug toxicity ([5]; ip 104 mg/kg/inj, bid days 1,4,7, L1210-inoculated BDF1 mice): 1
- toxicity (T/C column) ([5]; ip 288 mg/kg, qd day 1, L1210-inoculated BDF1 mice): TOX
- mortality ([5]; mouse, in vivo, 104 mg/kg, bid days 1,4,7, L1210-inoculated mice, read-out: toxic deaths per number of animals in test group (converted)): 20%
- activity against Methotrexate resistant cells ([6]; depending on dose level and regimen): activity can be seen against these Methotrexate resistant cells
- L1210/MTX cells surviving (% of day zero inoculum) ([6]; ip 104 mg/kg/day, qd days 1,4,7): 238.4%
- L1210/MTX cells surviving (% of day zero inoculum) ([6]; ip 173 mg/kg/day, qd day 1): 1.6%
- L1210/MTX cells surviving (% of day zero inoculum) ([6]; ip 173 mg/kg/day, qd days 1,4,7): 33.8%
- RCP (Residual Cell Population) [7, 16]: .28
- RCP (Residual Cell Population) [7, 17]: .09
- L1210/6MP, 6TG, 6TGR cells surviving (% of day zero inoculum) ([7]; ip 62 mg/kg, bid day 1): 15.9%
- L1210/6MP, 6TG, 6TGR cells surviving (% of day zero inoculum) ([7]; ip 62 mg/kg, qd day 1): 15.9%
- L1210/6MP, 6TG, 6TGR cells surviving (% of day zero inoculum) ([7]; ip 62 mg/kg, tid day 1): 15.9%
- L1210/6MP, 6TG, 6TGR cells surviving (% of day zero inoculum) ([7]; ip 104 mg/kg, qd day 1): 54.5%
- L1210/6MP, 6TG, 6TGR cells surviving (% of day zero inoculum) ([7]; ip 173 mg/kg, qd day 1): 4.6%
- Median survival time [8, 17]: 45 days post inoculation
- T/C (%) [8, 17]: 196%
- Median survival time ([8]; ip 62 mg/kg/inj, qd days 1-7): 40 days post inoculation
- T/C (%) ([8]; ip 62 mg/kg/inj, qd days 1-7): 174%
- Median survival time ([8]; ip 104 mg/kg/inj, bid days 1,4,7, group included 6 toxic deaths): 17 days post inoculation
- Median survival time [8, 18]: 34 days post inoculation
- T/C (%) [8, 18]: 148%
- Median survival time [8, 14]: 31 days post inoculation
- T/C (%) [8, 14]: 135%
- Median survival time ([8]; ip 104 mg/kg/inj, qd days 1-7): 38 days post inoculation
- T/C (%) ([8]; ip 104 mg/kg/inj, qd days 1-7): 165%
- Median survival time [8, 19]: 42 days post inoculation
- T/C (%) [8, 19]: 183%
- Median survival time [8, 15]: 31 days post inoculation
- T/C (%) [8, 15]: 135%
- Tumor wt, staging day (mean ± 1SD) ([9]; ip 138.4 mg/kg/inj group, qd days 1,3,5,7,9): 226 mg
- Tumor wt, staging day (mean ± 1SD) ([9]; ip 138.4 mg/kg/inj group, qd days 1,3,5,7,9,11): 220 mg
- Tumor wt, staging day (mean ± 1SD) ([9]; ip 138.4 mg/kg/inj group, qd days 1,4,7,10,13): 225 mg
- Tumor wt, staging day (mean ± 1SD) ([9]; ip 138.4 mg/kg/inj group, qd days 1,4,7,10,13,16): 215 mg
- Tumor wt, staging day (mean ± 1SD) ([9]; ip 173.0 mg/kg/inj group, qd days 1,3,5,7): 222 mg
- Tumor wt, staging day (mean ± 1SD) ([9]; ip 173.0 mg/kg/inj group, qd days 1,3,5,7,9): 229 mg
- Tumor wt, staging day (mean ± 1SD) ([9]; ip 173.0 mg/kg/inj group, qd days 1,4,7,10): 226 mg
- Tumor wt, staging day (mean ± 1SD) ([9]; ip 173.0 mg/kg/inj group, qd days 1,4,7,10,13): 226 mg
- Tumor wt, evaluation day (mean ± 1SD) [9, 20]: 278 ± 114 mg
- δT/δC [9, 20]: 25.0%
- Tumor wt, evaluation day (mean ± 1SD) [9, 21]: 296 ± 186 mg
- δT/δC [9, 21]: 38.9%
- Tumor wt, evaluation day (mean ± 1SD) [9, 22]: 302 ± 144 mg
- δT/δC [9, 22]: 38.5%
- Tumor wt, evaluation day (mean ± 1SD) [9, 23]: 358 ± 125 mg
- δT/δC [9, 23]: 46.6%
- Tumor wt, evaluation day (mean ± 1SD) [9, 24]: 375 ± 155 mg
- δT/δC [9, 24]: 50.7%
- Tumor wt, evaluation day (mean ± 1SD) [9, 25]: 364 ± 254 mg
- δT/δC [9, 25]: 39.9%
- Tumor wt, evaluation day (mean ± 1SD) [9, 26]: 402 ± 187 mg
- δT/δC [9, 26]: 52.1%
- Tumor wt, evaluation day (mean ± 1SD) [9, 27]: 279 ± 121 mg
- δT/δC [9, 27]: 15.8%
- activity against Lewis lung carcinoma [10]: No activity
- Tumor wt, staging day (mean ± 1SD) ([11]; ip 110.8 mg/kg/inj group): 396 ± 116 mg
- Tumor wt, staging day (mean ± 1SD) ([11]; ip 138.4 mg/kg/inj group): 355 ± 79 mg
- Tumor wt, staging day (mean ± 1SD) ([11]; ip 173.0 mg/kg/inj group): 354 ± 81 mg
- Tumor wt, evaluation day (mean ± 1SD) ([11]; ip 110.8 mg/kg/inj): 1121 ± 343 mg
- Tumor wt, evaluation day (mean ± 1SD) ([11]; ip 138.4 mg/kg/inj): 855 ± 325 mg
- Tumor wt, evaluation day (mean ± 1SD) ([11]; ip 173.0 mg/kg/inj): 409 ± 385 mg
- δT/δC ([11]; ip 110.8 mg/kg/inj): 65.8
- δT/δC ([11]; ip 138.4 mg/kg/inj): 45.4
- δT/δC ([11]; ip 173.0 mg/kg/inj): 5.0
- Maximum solubility (as dosage) [12]: 288 mg/kg
- maximum solubility (as dose) [12]: 288 mg per kg
- solubility relative to enantiomer B [12]: exhibits solubility characteristics of enantiomer B
- water solubility [12]: water soluble
- activity against B-16 melanoma [13]: No activity

Source: patent US5026836A, “6-sulfenamide, 6-sulfinamide and 6-sulfonamide purines, purine nucleosides, purine nucleotides, pharmaceutical compositions, and processes of making” (priority 1988, dated 1991)
